Measurements taken from patent US12059422B2 (MEI Pharma, Inc., priority 2011, dated 2024).

How the values were obtained:
PI3K beta = target: T1, PI3K beta (Homo sapiens, UniProt P42338); experiment: Luciferase-based luminescence assay (ADP Glo), PI3K beta enzymatic activity; format: biochemical; conditions: for IC50: inhibition of enzymatic activity, ADP Glo, 25 μM ATP, read-out: IC50 p110β; for α/β ratio: ratio of enzymatic IC50 values, Table 1
T1 construct: purchased Millipore, Billerica, MA, USA
T1 sequence (P42338 whole entry, species assumed): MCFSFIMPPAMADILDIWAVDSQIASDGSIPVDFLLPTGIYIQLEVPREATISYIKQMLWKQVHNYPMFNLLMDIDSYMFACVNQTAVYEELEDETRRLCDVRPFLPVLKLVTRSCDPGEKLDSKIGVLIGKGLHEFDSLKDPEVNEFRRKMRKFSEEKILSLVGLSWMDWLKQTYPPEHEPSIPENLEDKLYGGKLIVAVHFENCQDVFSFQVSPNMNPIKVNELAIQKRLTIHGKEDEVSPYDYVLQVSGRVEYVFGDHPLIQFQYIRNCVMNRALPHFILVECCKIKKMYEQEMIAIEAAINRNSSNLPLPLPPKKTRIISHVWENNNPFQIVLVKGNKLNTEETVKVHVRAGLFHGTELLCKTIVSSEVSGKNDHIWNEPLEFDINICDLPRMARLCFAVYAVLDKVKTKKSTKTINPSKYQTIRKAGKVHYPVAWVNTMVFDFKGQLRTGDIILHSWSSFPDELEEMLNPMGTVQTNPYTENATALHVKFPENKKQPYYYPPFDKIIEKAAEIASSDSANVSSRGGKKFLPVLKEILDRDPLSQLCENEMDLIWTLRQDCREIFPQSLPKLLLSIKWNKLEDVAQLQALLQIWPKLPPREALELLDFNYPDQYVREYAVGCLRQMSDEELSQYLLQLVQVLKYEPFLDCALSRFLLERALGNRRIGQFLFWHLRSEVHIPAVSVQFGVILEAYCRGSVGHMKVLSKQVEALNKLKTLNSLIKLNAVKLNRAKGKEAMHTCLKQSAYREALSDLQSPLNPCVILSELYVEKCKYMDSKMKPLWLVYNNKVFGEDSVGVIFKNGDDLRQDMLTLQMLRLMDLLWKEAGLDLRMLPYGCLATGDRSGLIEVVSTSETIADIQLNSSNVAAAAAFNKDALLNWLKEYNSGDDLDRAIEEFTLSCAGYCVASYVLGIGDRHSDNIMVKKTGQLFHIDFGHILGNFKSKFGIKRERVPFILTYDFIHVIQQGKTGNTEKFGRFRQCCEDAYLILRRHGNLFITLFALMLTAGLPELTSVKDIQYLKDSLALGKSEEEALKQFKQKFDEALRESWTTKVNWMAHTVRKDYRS
T1 sequence (P27986 whole entry partner, species assumed): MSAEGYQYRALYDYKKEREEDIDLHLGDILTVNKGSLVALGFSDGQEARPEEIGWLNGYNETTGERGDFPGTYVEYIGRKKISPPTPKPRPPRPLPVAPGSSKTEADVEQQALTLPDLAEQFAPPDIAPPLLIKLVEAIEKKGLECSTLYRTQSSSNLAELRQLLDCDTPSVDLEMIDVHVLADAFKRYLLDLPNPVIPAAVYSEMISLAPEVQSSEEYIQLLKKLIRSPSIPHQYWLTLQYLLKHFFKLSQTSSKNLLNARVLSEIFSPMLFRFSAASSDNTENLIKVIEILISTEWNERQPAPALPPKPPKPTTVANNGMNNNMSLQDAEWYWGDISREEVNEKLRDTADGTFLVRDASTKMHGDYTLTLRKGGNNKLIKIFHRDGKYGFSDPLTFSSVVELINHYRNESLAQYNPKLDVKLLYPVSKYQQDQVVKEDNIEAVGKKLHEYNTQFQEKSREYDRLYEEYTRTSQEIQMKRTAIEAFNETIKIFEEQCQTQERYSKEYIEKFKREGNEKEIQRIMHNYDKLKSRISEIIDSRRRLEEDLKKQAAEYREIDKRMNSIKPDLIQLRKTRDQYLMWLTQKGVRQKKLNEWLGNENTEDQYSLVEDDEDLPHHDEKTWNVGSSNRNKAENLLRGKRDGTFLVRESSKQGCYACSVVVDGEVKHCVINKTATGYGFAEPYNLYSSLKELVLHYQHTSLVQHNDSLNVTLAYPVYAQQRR
Method in brief: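 Final enzyme 4.8 nM PI3K beta or 7.6 nM PI3K gamma, with 50 μM PIP2 and 25 μM ATP, 1 h in HEPES pH 7.5 buffer with MgCl2, EGTA, NaCl, CHAPS and DTT. ADP formed measured by ADP-Glo luminescence; IC50 from 10-point curve fits.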

PI3Kβ = target: T2, PI3Kβ (Homo sapiens, UniProt P42338); experiment: ELISA assay for PI3Kβ: in-cell ELISA, phosphorylation of AKT (Ser473) in PC-3 cells; format: cell-based; conditions: for IC50: cellular, pAKT (Ser473), PC-3 cells, LPA stimulation, read-out: IC50 p110β; for α/β ratio: ratio of cellular IC50 values, Table 2
T2 construct: endogenous in cells; host or cells: PC-3 (ATCC #CRL-1435)
T2 sequence (P42338 whole entry): as the sequence (P42338 whole entry, species assumed) above
T2 sequence (P27986 whole entry partner): as the sequence (P27986 whole entry partner, species assumed) above
Procedure: Cellular PI3Kβ activity was determined by measuring the phosphorylation of AKT (Ser473) using an in-cell ELISA assay. PC-3 (prostate carcinoma) cells were obtained from ATCC (ATCC #CRL-1435). Growth medium was DMEM (CellGro #CV-10-013-CV) supplemented with 10% fetal bovine serum, 100 IU/mL penicillin, 100 μg/mL streptomycin, and 1×MEM non-essential amino acids. Phosphate buffered saline (PBS) contained 2.7 M NaCl, 54 mM KCl, 86 mM […] (dibasic, anhydrous), 28 mM […] (monobasic, anhydrous), pH 7.2, 10× stimulation mixture contained 50 μM LPA (Cayman #62215) diluted in serum-free DMEM medium (CellGro #CV-10-013-CV). Compounds for testing were dissolved and serially diluted in 100% DMSO (total of 10 concentrations), then diluted in serum-free DMEM to 2× final assay concentration. 2× fixative solution contained 8% formaldehyde (Amresco #M134) diluted in PBS. Permeabilization solution contained PBS supplemented with 0.1% Triton X-100. Blocking buffer was obtained from LiCor (LiCor #927-40000). Wash buffer contained PBS supplemented with 0.1% Tween-20. Primary antibody solution was rabbit anti-pAKT^S473 monoclonal antibody (Cell Signaling #4060) and mouse anti-total S6 (Santa Cruz #74459) diluted 1:500 and 1:2000, respectively, in blocking buffer. Secondary antibody solution was IRDye 800CW-conjugated goat anti-rabbit IgG (LiCor #926-32211) and IRDye 680LT-conjugated goat anti-mouse IgG (LiCor #926-68020) diluted 1:2000 and 1:1000, respectively, in blocking buffer.
PC-3 cells were subcultured in growth medium and seeded into flat, clear bottom, 96-well plates (Corning #3904) at 16000 cells/well, then incubated overnight in a 37° C., 5% CO2 incubator. Growth medium in plates was replaced with 100 μL/well serum-free DMEM and incubated overnight in a 37° C., 5% CO2 incubator. 50 μL/well of fresh serum-free DMEM was added to plates. Compound treatment was performed by adding 50 μL/well of 2× compound mixture to plates and incubating for 2 hrs at 37° C., 5% CO2, after which 11 μL/well of 10× stimulation mixture was added and plates were incubated for 10 min at 37° C., 5% CO2. Fixation was performed by adding 110 μL/well of 2× fixative solution to plates and incubating for 20 min at room temperature. Permeabilization was performed by replacing fixation solution with 150 μL/well permeabilization solution and incubating for 10 min at room temperature. Permeabilization was repeated (for a total of 2 times). Permeabilization solution was replaced with 100 μL/well blocking buffer and plates were incubated for 1 hr at room temperature, after which 100 μL/well of primary antibody solution was added and plates were incubated overnight at 4° C. Plates were washed with wash buffer, after which 100 μL/well of secondary antibody solution was added to the plates and incubated in the dark for 1 hr at room temperature. Plates were washed with wash buffer, followed by awash with PBS. After completely removing PBS, plates were scanned on the Licor Odyssey Imager. Images quantified using Licor Odyssey application software. IC50 values were determined by curve fitting using a Collaborative Drug Discovery database (www.collaborativedrug.com).

CC(C)(Cc1ccccc1-c1cn[nH]c1)Nc1nc(N2CCOCC2)nc(-n2c(C(F)F)nc3ccccc32)n1 [Compound A44, 4-(2-(difluoromethyl)-1H-benzo[d]imidazol-1-yl)-N-(1-(2-(1H-pyrazol-4-yl)phenyl)-2-methylpropan-2-yl)-6-morpholino-1,3,5-triazin-2-amine]
IC50 (PI3K beta): ≤ 0.1 µM
α/β ratio (PI3K beta): A’
IC50 (PI3Kβ): ≤ 0.1 µM
α/β ratio (PI3Kβ): A’

Cn1cc(-c2ccccc2CC(C)(C)Nc2nc(N3CCOCC3)nc(-n3c(C(F)F)nc4ccccc43)n2)cn1 [Compound A45, 4-(2-(difluoromethyl)-1H-benzo[d]imidazol-1-yl)-N-(2-methyl-1-(2-(1-methyl-1H-pyrazol-4-yl)phenyl)propan-2-yl)-6-morpholino-1,3,5-triazin-2-amine]
IC50 (PI3K beta): ≤ 0.1 µM
α/β ratio (PI3K beta): A’
IC50 (PI3Kβ): ≤ 0.1 µM
α/β ratio (PI3Kβ): A’

Cn1nccc1-c1ccccc1CC(C)(C)Nc1nc(N2CCOCC2)nc(-n2c(C(F)F)nc3ccccc32)n1 [Compound A46, 4-(2-(difluoromethyl)-1H-benzo[d]imidazol-1-yl)-N-(2-methyl-1-(2-(1-methyl-1H-pyrazol-5-yl)phenyl)propan-2-yl)-6-morpholino-1,3,5-triazin-2-amine]
IC50 (PI3K beta): ≤ 0.1 µM
α/β ratio (PI3K beta): A’
IC50 (PI3Kβ): ≤ 0.1 µM
α/β ratio (PI3Kβ): A’

Cc1cccc(CC(C)(C)Nc2nc(N3CCOCC3)nc(-n3c(C(F)F)nc4ccccc43)n2)c1 [Compound A49, 4-(2-(difluoromethyl)-1H-benzo[d]imidazol-1-yl)-N-(2-methyl-1-m-tolylpropan-2-yl)-6-morpholino-1,3,5-triazin-2-amine]
IC50 (PI3K beta): ≤ 0.1 µM
α/β ratio (PI3K beta): A’
IC50 (PI3Kβ): ≤ 0.1 µM
α/β ratio (PI3Kβ): B’

COc1cc(CC(C)(C)Nc2nc(N3CCOCC3)nc(-n3c(C(F)F)nc4ccccc43)n2)ccc1F [Compound A50, 4-(2-(difluoromethyl)-1H-benzo[d]imidazol-1-yl)-N-(1-(4-fluoro-3-methoxyphenyl)-2-methylpropan-2-yl)-6-morpholino-1,3,5-triazin-2-amine]
IC50 (PI3K beta): ≤ 0.1 µM
α/β ratio (PI3K beta): B’
IC50 (PI3Kβ): ≤ 0.1 µM
α/β ratio (PI3Kβ): B’

CC(C)(Cc1ccc(F)cc1F)Nc1nc(N2CCOCC2)nc(-n2c(C(F)F)nc3ccccc32)n1 [Compound A51, 4-(2-(difluoromethyl)-1H-benzo[d]imidazol-1-yl)-N-(1-(2,4-difluorophenyl)-2-methylpropan-2-yl)-6-morpholino-1,3,5-triazin-2-amine]
IC50 (PI3K beta): > 0.5 µM
α/β ratio (PI3K beta): D’
IC50 (PI3Kβ): 0.1 to 0.2 µM
α/β ratio (PI3Kβ): C’

CC(C)(Cc1c(F)cccc1F)Nc1nc(N2CCOCC2)nc(-n2c(C(F)F)nc3ccccc32)n1 [Compound A52, 4-(2-(difluoromethyl)-1H-benzo[d]imidazol-1-yl)-N-(1-(2,6-difluorophenyl)-2-methylpropan-2-yl)-6-morpholino-1,3,5-triazin-2-amine]
IC50 (PI3K beta): > 0.5 µM
α/β ratio (PI3K beta): D’
IC50 (PI3Kβ): ≤ 0.1 µM
α/β ratio (PI3Kβ): C’

CC(C)(Cc1ccccc1-c1ccccc1F)Nc1nc(N2CCOCC2)nc(-n2c(C(F)F)nc3ccccc32)n1 [Compound A59, 4-(2-(difluoromethyl)-1H-benzo[d]imidazol-1-yl)-N-(1-(2′-fluorobiphenyl-2-yl)-2-methylpropan-2-yl)-6-morpholino-1,3,5-triazin-2-amine]
IC50 (PI3K beta): 0.2 to 0.5 µM
α/β ratio (PI3K beta): C’
IC50 (PI3Kβ): 0.1 to 0.2 µM
α/β ratio (PI3Kβ): A’

Cc1ccccc1-c1ccccc1CC(C)(C)Nc1nc(N2CCOCC2)nc(-n2c(C(F)F)nc3ccccc32)n1 [Compound A60, 4-(2-(difluoromethyl)-1H-benzo[d]imidazol-1-yl)-N-(2-methyl-1-(2′-methylbiphenyl-2-yl)propan-2-yl)-6-morpholino-1,3,5-triazin-2-amine]
IC50 (PI3K beta): ≤ 0.1 µM
α/β ratio (PI3K beta): A’
IC50 (PI3Kβ): 0.2 to 0.5 µM
α/β ratio (PI3Kβ): A’

CC(C)(Cc1ccccc1-c1ccccc1Cl)Nc1nc(N2CCOCC2)nc(-n2c(C(F)F)nc3ccccc32)n1 [Compound A61, 4-(2-(difluoromethyl)-1H-benzo[d]imidazol-1-yl)-N-(1-(6′-chlorobiphenyl-2-yl)-2-methylpropan-2-yl)-6-morpholino-1,3,5-triazin-2-amine]
IC50 (PI3K beta): ≤ 0.1 µM
α/β ratio (PI3K beta): A’
IC50 (PI3Kβ): 0.1 to 0.2 µM
α/β ratio (PI3Kβ): A’

CC(C)(Cc1ccccc1-c1cccnc1F)Nc1nc(N2CCOCC2)nc(-n2c(C(F)F)nc3ccccc32)n1 [Compound A62]
IC50 (PI3K beta): > 0.5 µM
α/β ratio (PI3K beta): D’
IC50 (PI3Kβ): ≤ 0.1 µM
α/β ratio (PI3Kβ): A’

CC(C)(Cc1ccccc1-c1cncnc1)Nc1nc(N2CCOCC2)nc(-n2c(C(F)F)nc3ccccc32)n1 [Compound A63, 4-(2-(difluoromethyl)-1H-benzo[d]imidazol-1-yl)-N-(2-methyl-1-(2-(pyrimidin-5-yl)phenyl)propan-2-yl)-6-morpholino-1,3,5-triazin-2-amine]
IC50 (PI3K beta): ≤ 0.1 µM
α/β ratio (PI3K beta): D’
IC50 (PI3Kβ): ≤ 0.1 µM
α/β ratio (PI3Kβ): A’

CN1CCN(c2cc(-c3ccccc3CC(C)(C)Nc3nc(N4CCOCC4)nc(-n4c(C(F)F)nc5ccccc54)n3)ccn2)CC1 [Compound A64, 4-(2-(difluoromethyl)-1H-benzo[d]imidazol-1-yl)-N-(2-methyl-1-(2-(2-(4-methylpiperazin-1-yl)pyridin-4-yl)phenyl)propan-2-yl)-6-morpholino-1,3,5-triazin-2-amine]
IC50 (PI3K beta): ≤ 0.1 µM
α/β ratio (PI3K beta): A’
IC50 (PI3Kβ): ≤ 0.1 µM
α/β ratio (PI3Kβ): A’

CC(C)(Cc1ccccc1-c1cccc(CN2CCOCC2)c1)Nc1nc(N2CCOCC2)nc(-n2c(C(F)F)nc3ccccc32)n1 [Compound A65, 4-(2-(difluoromethyl)-1H-benzo[d]imidazol-1-yl)-N-(2-methyl-1-(3′-(morpholinomethyl)biphenyl-2-yl)propan-2-yl)-6-morpholino-1,3,5-triazin-2-amine]
IC50 (PI3K beta): ≤ 0.1 µM
α/β ratio (PI3K beta): A’
IC50 (PI3Kβ): ≤ 0.1 µM
α/β ratio (PI3Kβ): A’

COc1cccc(-c2ccccc2CC(C)(C)Nc2nc(N3CCOCC3)nc(-n3c(C(F)F)nc4ccccc43)n2)c1 [Compound A66, 4-(2-(difluoromethyl)-1H-benzo[d]imidazol-1-yl)-N-(1-(3′-methoxybiphenyl-2-yl)-2-methylpropan-2-yl)-6-morpholino-1,3,5-triazin-2-amine]
IC50 (PI3K beta): > 0.5 µM
α/β ratio (PI3K beta): D’
IC50 (PI3Kβ): 0.1 to 0.2 µM
α/β ratio (PI3Kβ): A’

COc1ccc(-c2ccccc2CC(C)(C)Nc2nc(N3CCOCC3)nc(-n3c(C(F)F)nc4ccccc43)n2)cc1 [Compound A67, 4-(2-(difluoromethyl)-1H-benzo[d]imidazol-1-yl)-N-(1-(4′-methoxybiphenyl-2-yl)-2-methylpropan-2-yl)-6-morpholino-1,3,5-triazin-2-amine]
IC50 (PI3K beta): 0.2 to 0.5 µM
α/β ratio (PI3K beta): D’
IC50 (PI3Kβ): 0.2 to 0.5 µM
α/β ratio (PI3Kβ): A’

CC(C)(Cc1ccccc1C1CCNCC1)Nc1nc(N2CCOCC2)nc(-n2c(C(F)F)nc3ccccc32)n1 [Compound A68, 4-(2-(difluoromethyl)-1H-benzo[d]imidazol-1-yl)-N-(2-methyl-1-(2-(piperidin-4-yl)phenyl)propan-2-yl)-6-morpholino-1,3,5-triazin-2-amine]
IC50 (PI3K beta): > 0.5 µM
α/β ratio (PI3K beta): D’
IC50 (PI3Kβ): ≤ 0.1 µM
α/β ratio (PI3Kβ): A’
